Test results from patent US9376376B2, “Substitute diphenylamine compounds use thereof as antitumor agents” (SINOCHEM CORPORATION, priority 2012, dated 2016).

Legend:
leukemia HL-60 cells = assay: In vitro cell inhibition assay, CCK-8 method, HL-60; type: cell-based, human; settings: HL-60 cells, CCK-8 method
Protocol: (§1) After the cell culture flasks gently shaking, culture fluid was discarded in clean bench. […] Cells were collected and transferred to centrifuge tube. For the non-adherent cells HL-60, CCRF-CEM and MOLT-4, cell flasks were picked up from incubator and then transferred to the centrifuge tubes directly. After cells were collected using centrifuge at 1000 rpm/min for 5 min, the fluid was discarded. Then cells were washed for one time by PBS, discard fluid. Then add some medium, count cells under inverted microscope using blood cell counting plate, according the counting number to making the density of adherent cell was 1×10^5 cells/mL, the non-adherent cell was 2×10^5 cells/mL (the volumes of HL-60, CCRF-CEM, MOLT-4 are smaller than non-adherent cells, these cells added to each well was much more higher). Add 50 μL aliquots to each well of 96-well plates (the density of adherent cells was 5000 cells/well, non-adherent cells was 10000 cells/well). Blank control, Negative control, blank control with compounds and positive control wells were grouped, and three replicate wells were used for each data point in the experiments. Then the cells were cultured in 5% incubator for overnight at 37° C., Then the different concentration compounds were added to each well. After incubation for 48 h, according to the manufacturer's instructions, CCK-8 reagent (10 μl) was added and incubation was continued for a further 2-4 h. The absorbance (A) of each well was read at 450 nm using a plate reader.

[1] = tested on: non-small cell lung cancer A549 cells; assay: In vitro cell inhibition assay, CCK-8 method, A549; type: cell-based, human; settings: 48 h incubation
Protocol: as §1

| SMILES | Proliferation inhibitory effect of the compounds on HL-60 cells (% of Control) (leukemia HL-60 cells; concentration 0.01 μM) | Proliferation inhibitory effect of the compounds on HL-60 cells (% of Control) (leukemia HL-60 cells; concentration 0.1 μM) | Proliferation inhibitory effect of the compounds on HL-60 cells (% of Control) (leukemia HL-60 cells; concentration 1 μM) | Proliferation inhibitory effect of the compounds on HL-60 cells (% of Control) (leukemia HL-60 cells; concentration 10 μM) | Proliferation inhibitory effect of the compounds on HL-60 cells (% of Control) (leukemia HL-60 cells; concentration 100 μM) | Proliferation inhibitory effect of the compounds on A549 cells (% of Control) ([1]; CCK-8, 0.01 μM) | Proliferation inhibitory effect of the compounds on A549 cells (% of Control) ([1]; CCK-8, 0.1 μM) | Proliferation inhibitory effect of the compounds on A549 cells (% of Control) ([1]; CCK-8, 1 μM) | Proliferation inhibitory effect of the compounds on A549 cells (% of Control) ([1]; CCK-8, 10 μM) | Proliferation inhibitory effect of the compounds on A549 cells (% of Control) ([1]; CCK-8, 100 μM) | inhibition at 0.01 µM (leukemia HL-60 cells; Homo sapiens, concentration 0.01 μM, read-out: Proliferation inhibitory effect of the compounds on HL-60 cells (% of Control)) [%] | inhibition at 0.1 µM (leukemia HL-60 cells; Homo sapiens, concentration 0.1 μM, read-out: Proliferation inhibitory effect of the compounds on HL-60 cells (% of Control)) [%] | inhibition at 1 µM (leukemia HL-60 cells; Homo sapiens, concentration 1 μM, read-out: Proliferation inhibitory effect of the compounds on HL-60 cells (% of Control)) [%] | inhibition at 10 µM (leukemia HL-60 cells; Homo sapiens, concentration 10 μM, read-out: Proliferation inhibitory effect of the compounds on HL-60 cells (% of Control)) [%] | inhibition at 100 µM (leukemia HL-60 cells; Homo sapiens, concentration 100 μM, read-out: Proliferation inhibitory effect of the compounds on HL-60 cells (% of Control)) [%] | inhibition at 0.01 µM ([1]; Homo sapiens, A549, CCK-8, 0.01 μM, read-out: Proliferation inhibitory effect of the compounds on A549 cells (% of Control)) [%] | inhibition at 0.1 µM ([1]; Homo sapiens, A549, CCK-8, 0.1 μM, read-out: Proliferation inhibitory effect of the compounds on A549 cells (% of Control)) [%] | inhibition at 1 µM ([1]; Homo sapiens, A549, CCK-8, 1 μM, read-out: Proliferation inhibitory effect of the compounds on A549 cells (% of Control)) [%] | inhibition at 10 µM ([1]; Homo sapiens, A549, CCK-8, 10 μM, read-out: Proliferation inhibitory effect of the compounds on A549 cells (% of Control)) [%] | inhibition at 100 µM ([1]; Homo sapiens, A549, CCK-8, 100 μM, read-out: Proliferation inhibitory effect of the compounds on A549 cells (% of Control)) [%] |
| --- | --- | --- | --- | --- | --- | --- | --- | --- | --- | --- | --- | --- | --- | --- | --- | --- | --- | --- | --- | --- |
| N#Cc1c(Cl)c(Cl)c(Nc2c(Br)cc(OC(F)(F)F)cc2Br)c(C#N)c1Cl [Compound 6-111] | 13.70 % of Control | 41.52 % of Control | 79.31 % of Control | 95.16 % of Control | 99.28 % of Control | 23.15 % of Control | 29.42 % of Control | 53.14 % of Control | 80.03 % of Control | 99.83 % of Control | – | – | – | – | – | – | – | – | – | – |
| N#Cc1c(Cl)c(Cl)c(Nc2c(Br)cc(Br)cc2Br)c(C#N)c1Cl [Compound 6-112] | – | – | – | – | – | – | – | – | – | – | 48.3 | 59.5 | 91.5 | 97.6 | 96.5 | 46.5 | 47.2 | 76.9 | 89.3 | 99.3 |
